Laboratory results reported in ChEMBL document CHEMBL1154936, “Synthesis, SAR and intramolecular hydrogen bonding pattern of 1,3,5-trisubstituted 4,5-dihydropyrazoles as potent cannabinoid CB(1) receptor antagonists” (Bioorg Med Chem Lett, 2010).

Legend:
Cannabinoid receptor 1 [1] = molecular target: T1, Cannabinoid receptor 1 (Homo sapiens, UniProt P21554); assay: Displacement of [3H]CP-55940 from human cannabinoid CB1 receptor expressed in CHO cells; format: cell-based
Cannabinoid receptor 1 [2] = molecular target: T1, Cannabinoid receptor 1; assay: Antagonist activity at human cannabinoid CB1 receptor expressed in CHO cells assessed as inhibition of CP-55940-induced [3H]arachidonic acid release; format: functional, cell-based; conditions: read-out: pA2 (converted)
Cannabinoid receptor 2 = Cannabinoid receptor 2 (Homo sapiens, UniProt P34972); assay: Displacement of [3H]CP-55940 from human cannabinoid CB2 receptor expressed in CHO cells; format: cell-based
Rattus norvegicus = assay: Inhibition of CP-55940-induced hypotension in po dosed rat; format: functional; conditions: read-out: ID50 (the source's name)

T1 sequence (P21554 whole entry): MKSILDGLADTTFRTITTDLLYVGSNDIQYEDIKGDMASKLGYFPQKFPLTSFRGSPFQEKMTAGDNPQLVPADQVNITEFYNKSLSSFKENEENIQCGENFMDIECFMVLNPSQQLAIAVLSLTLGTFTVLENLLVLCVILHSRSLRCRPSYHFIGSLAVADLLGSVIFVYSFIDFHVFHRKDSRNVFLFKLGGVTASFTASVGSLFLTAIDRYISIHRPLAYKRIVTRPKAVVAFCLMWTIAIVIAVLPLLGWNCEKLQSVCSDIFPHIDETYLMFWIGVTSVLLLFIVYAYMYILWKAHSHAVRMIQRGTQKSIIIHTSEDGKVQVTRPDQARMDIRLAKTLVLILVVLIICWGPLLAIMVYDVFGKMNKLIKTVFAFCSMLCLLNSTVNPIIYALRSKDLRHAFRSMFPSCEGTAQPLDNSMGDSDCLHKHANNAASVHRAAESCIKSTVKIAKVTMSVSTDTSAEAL
Chain of Cannabinoid receptor 2 (P34972 whole entry): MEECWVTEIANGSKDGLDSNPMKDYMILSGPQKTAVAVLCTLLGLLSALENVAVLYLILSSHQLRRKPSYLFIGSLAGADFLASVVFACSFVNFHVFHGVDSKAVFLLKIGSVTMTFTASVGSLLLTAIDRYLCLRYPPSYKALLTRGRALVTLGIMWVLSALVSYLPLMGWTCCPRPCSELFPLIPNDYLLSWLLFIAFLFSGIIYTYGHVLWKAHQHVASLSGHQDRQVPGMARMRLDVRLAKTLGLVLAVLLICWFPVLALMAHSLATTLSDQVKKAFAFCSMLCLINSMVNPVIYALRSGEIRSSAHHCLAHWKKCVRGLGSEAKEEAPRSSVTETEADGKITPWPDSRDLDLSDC

Row | SMILES | Ki (Cannabinoid receptor 1 [1]) [nM] | Kb (Cannabinoid receptor 1 [2]) [nM] | Ki (Cannabinoid receptor 2) [nM] | ED50 (Rattus norvegicus) [mg/kg]
1 | CN/C(=N\S(=O)(=O)N1CCC(F)(F)CC1)C1=NN(c2ccc(Cl)cc2)[C@H](c2ccccc2)C1 | 280 | > 200 | > 1000 | > 30
2 | CNC(=NS(=O)(=O)N1CCC(F)CC1)N1CC(c2ccccc2)C(c2ccc(Cl)cc2)=N1 (stereo not given) | 7.5 | 1 | > 1000 | > 30
3 | CN/C(=N\S(=O)(=O)c1ccc(F)cc1)C1=NN(c2ccc(Cl)cc2)C(c2ccccc2)C1 (stereo not given) | 21.7 | 10 | > 1000 | 30
4 | CNC(=NS(=O)(=O)N1CCC(C(F)(F)F)CC1)C1=NN(c2ccc(Cl)cc2)[C@@H](c2ccccc2)C1 | 2 | – | 584 | –
5 | CNC(=NS(=O)(=O)N1CCC(C(F)(F)F)CC1)C1=NN(c2ccc(Cl)cc2)[C@H](c2ccccc2)C1 | 58 | 6.31 | > 1000 | –
6 | CNC(=NS(=O)(=O)N1CCC(C(F)(F)F)CC1)N1C[C@H](c2ccccc2)C(c2ccc(Cl)cc2)=N1 | 4.7 | 0.251 | 305 | 2
7 | CNC(=NS(=O)(=O)N1CCC(C(F)(F)F)CC1)N1C[C@@H](c2ccccc2)C(c2ccc(Cl)cc2)=N1 | 140 | 50.1 | > 1000 | > 30
8 | CNC(=NS(=O)(=O)N1CCC(F)(F)CC1)N1C[C@H](c2ccccc2)C(c2ccc(Cl)cc2)=N1 | 42 | 1 | > 1000 | 6
9 | CNC(=NS(=O)(=O)N1CCC(F)(F)CC1)N1C[C@@H](c2ccccc2)C(c2ccc(Cl)cc2)=N1 | 463 | 398 | > 1000 | > 30
10 | CN/C(=N\S(=O)(=O)N1CCC(C(F)(F)F)CC1)N1CC(c2ccccc2)C(c2ccc(Cl)cc2)=N1 (stereo not given) | 14.5 | 0.398 | > 1000 | –
11 | CN/C(=N\S(=O)(=O)N1CCCCC1)N1C[C@H](c2ccccc2)C(c2ccc(Cl)cc2)=N1 | – | – | – | 8
12 | CN/C(=N\S(=O)(=O)c1ccc(Cl)cc1)C1=NN(c2ccc(Cl)cc2)C(c2ccccc2)C1 (stereo not given) | 84 | 3.98 | > 1000 | > 30
13 | CN/C(=N\S(=O)(=O)c1cccc(Cl)c1)C1=NN(c2ccc(Cl)cc2Cl)C(c2ccccc2)C1 (stereo not given) | 53 | 5.01 | 330 | > 30
14 | CN/C(=N\S(=O)(=O)c1ccc(Cl)cc1)C1=NN(c2ccc(Cl)cc2Cl)C(c2ccccc2)C1 (stereo not given) | 37 | 1 | 248 | > 30
15 | CN/C(=N\S(=O)(=O)c1ccc(C(F)(F)F)cc1)C1=NN(c2ccc(Cl)cc2Cl)C(c2ccccc2)C1 (stereo not given) | 11.3 | 2.51 | 179 | > 30
16 | CNC(=NS(=O)(=O)N1CCCCC1)C1=NN(c2ccc(Cl)cc2)C(c2ccccc2)C1 (stereo not given) | 141 | 12.6 | 1090 | > 30
17 | CN/C(=N\S(=O)(=O)N1CCC(F)CC1)C1=NN(c2ccc(Cl)cc2)C(c2ccccc2)C1 (stereo not given) | 55 | 3.98 | > 1000 | > 30
18 | CN/C(=N\S(=O)(=O)N1CCC(C(F)(F)F)CC1)C1=NN(c2ccc(Cl)cc2)C(c2ccccc2)C1 (stereo not given) | 7.6 | 0.398 | 606 | –
19 | CN=C(NS(=O)(=O)N1CCC(F)(F)CC1)C1=NN(c2ccc(Cl)cc2)C(c2ccccc2)C1 (stereo not given) | 38.8 | 0.794 | > 1000 | 9
20 | CN/C(=N\S(=O)(=O)N1CCC(F)(F)CC1)C1=NN(c2ccc(Cl)cc2)[C@@H](c2ccccc2)C1 | 9.2 | 1.58 | > 1000 | 5
21 | CN/C(=N\S(=O)(=O)N1CCC(F)(F)CC1)N1CC(c2ccccc2)C(c2ccc(Cl)cc2)=N1 (stereo not given) | – | – | – | 23
22 | CN/C(=N\S(=O)(=O)c1ccc(Cl)cc1)N1C[C@H](c2ccccc2)C(c2ccc(Cl)cc2)=N1 [IBIPINABANT] | – | – | – | 5.5
23 | CN/C(=N\S(=O)(=O)c1ccc(Cl)cc1)N1CC(c2ccccc2)C(c2ccc(Cl)cc2)=N1 (stereo not drawn) [RAC-IBIPINABANT] | – | – | – | 15
